Experimental data published in patent US20190135879A1, “GENE REGULATING BIN2 FUNCTION AND TRANSGENIC PLANT TRANSFORMED BY THE GENE” (SEOUL NATIONAL UNIVERSITY R&DB FOUNDATION, priority 2016, published 2019).
Residues, ends and D or L forms follow the SMILES beside them. *: point of attachment. Cbz = O=C(OCc1ccccc1)*

What was measured:
BIN2-HA protein = test: BL treatment assay, BIN2-HA protein amount by IP/Western analysis; format: in vivo, Arabidopsis thaliana
Protocol: Seedlings from 1-week-old plants were harvested and ground to powder in N2 and mixed with the extraction buffer containing 50 mM Tris-Cl (pH 7.5), 100 mM NaCl, 10 mM MgCl2, 1 mM EDTA, 10% glycerol 0.1% NP-40, 1 mM phenymethylsulfonyl fluoride (PMSF), and 1× protease inhibitor cocktail (GenDEPOT) 20 min at 4° C.
The IP experiments were performed using HA Tag IP/Co-IP Kit according to the manufacturer's protocol (Thermo Pierce).
The supernatant was incubated with prewashed anti-HA agarose beads for 4 h at 4° C. with gentle shaking. The beads were collected and washed three times with TBS plus 0.05% Tween-20 detergent (TBST), and dissolved in 2×SDS sample buffer. The proteins were separated by 10% SDS-PAGE, and Anti-HA (1:2,000, AbCam #9110) antibody was used to detect BIN2-HA.
[…] The seedlings were transferred to liquid 1/2 MS medium with 1% sucrose containing various concentrations of BL (24-epibrassinolide, Sigma #E1641), and incubated for the indicated times before being removed for Western analysis.
To investigate the BL-Induced BIN2 degradation, BRZ (Sekimata et al., 2001) treated seedlings were incubated in liquid 1/2 MS medium containing 1 μM BL and/or 20 μM MG132 (Sigma), a specific 26S proteasome inhibitor (Rock et al., 1994) for 30 min.

[1] = system: bin2-6D-HA transgenic seedlings; test: Phenotype of bin2-6D-HA transgenic seedlings on BL medium; format: in vivo, Arabidopsis thaliana; conditions: 1 μM BL-containing medium for 0, 2, 4 and 8 d
Protocol: (§1) Arabidopsis seeds were sterilized and germinated on agar-solidified 1/2 Murashige and Skoog (MS, Duchefa #M0222) with 1% sucrose. After stratification at 4° C. for 3 days, the wild type and mutant plants were grown under a photoperiod of a long day condition (16 h light/8 h dark) at 23° C. Seeds of various transgenic lines were germinated on Murashige and Skoog medium (1/2 MS) with 2 μM BRZ (Sigma), a BR biosynthesis inhibitor, and grown under a long day condition at 23° C. for 1 week. The seedlings were transferred to liquid 1/2 MS medium with 1% sucrose containing various concentrations of BL (24-epibrassinolide, Sigma #E1641), and incubated for the indicated times before being removed for Western analysis. To confirm whether the amount of BIN2 is affected by the BRs level, we grew BIN2-HA line and a bin2-6D-HA line on medium containing 2 μM BRZ for 2 weeks and then transferred them to liquid medium with 1 μM epi-BL for 2 to 8 days.

[2] = system: BIN2-HA transgenic seedlings; test: Phenotype of BIN2-HA transgenic seedlings on BRZ / BL medium; format: in vivo, Arabidopsis thaliana
Protocol: as §1

BIN2 [3] = test: Immunoprecipitation combined with LC/MALDI-TOF/MS of BIN2-interacting proteins; format: binding, Arabidopsis thaliana; conditions: BL-treated transgenic seedlings, anti-HA IP
Protocol: Seeds of transgenic lines, BIN2-HA, bin2-6D-HA, and BIN2KD-HA, were germinated on agar-solidified 1/2 MS with 1% sucrose supplemented with 1 μM BRZ and grown under a long day condition at 23° C. for 2 week. The seedlings were transferred them to liquid medium (1/2 MS with 1% sucrose) with 1 μM BL, and incubated for 30 min. These seedlings were ground to powder in liquid nitrogen and solubilized with protein extraction buffer containing 50 mM Tris-Cl (pH 7.5), 100 mM NaCl, 10 mM MgCl2, 1 mM EDTA, 10% glycerol 0.1% NP-40, 1 mM PMSF, and 1× Protease inhibitor cocktail (GenDEPOT). The extracts were centrifuged at 20,000×g for 20 min, and the resulting supernatants were collected and incubated with pretreated anti-HA agarose bead (Thermo Pierce) at 4° C. After incubation, the agarose beads were collected by centrifugation at 800×g for 30 sec and washed three times with extraction buffer. Immunoprecipitation (IP) complex was eluted by elution buffer containing 50 mM Tris-HCl (pH 7.5), 50 mM DTT, 1 mM EDTA, 10% glycerol, 1% SDS, and 0.01% bromophenol blue, and then separated in a 10% SDS-PAGE gel, and immunoblot analysis. […] The gel lane with separated bin2-6D-HA proteins was cut into a single slices, and then in-gel tryptic digestion and peptide desalting, the extracted peptides were analyzed by MALDI-TOF mass spectrometry on an Ultraflex III TOF/TOF (Bruker Daltonics, Germany). […]

BIN2 [4] = molecular target: T1, BIN2 (Arabidopsis thaliana, UniProt Q39011); test: Yeast two-hybrid assay of the BIN2-BRF1 interaction; format: binding; conditions: SD/-L-T-H medium with 1.5 mM 3-AT
T1 construct: the full-length cDNA fragments of BIN2 and BRF1 were PCR amplified with specific primers; expressed in transfected cells; host or cells: yeast strain AH109
T1 sequence (Q39011 1-380): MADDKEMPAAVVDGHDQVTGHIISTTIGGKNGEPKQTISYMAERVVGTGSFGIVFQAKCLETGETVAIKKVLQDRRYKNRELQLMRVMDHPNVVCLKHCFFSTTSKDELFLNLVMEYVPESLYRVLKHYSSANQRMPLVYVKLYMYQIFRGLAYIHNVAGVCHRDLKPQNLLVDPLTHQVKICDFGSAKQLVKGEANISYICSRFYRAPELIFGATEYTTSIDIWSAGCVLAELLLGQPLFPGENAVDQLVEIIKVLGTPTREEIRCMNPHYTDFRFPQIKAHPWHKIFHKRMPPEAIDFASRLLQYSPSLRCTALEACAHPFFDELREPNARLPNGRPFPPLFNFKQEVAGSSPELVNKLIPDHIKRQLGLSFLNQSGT
Protocol: Yeast two-hybrid assay was conducted following the Matchmaker Gold Yeast Two-Hybrid System manufacturer's protocol (Clontech) for testing the BIN2 and BRF1 interaction.
To make the yeast two-hybrid assay constructs, the full-length cDNA fragments of BIN2 and BRF1 were PCR amplified with specific primers, BIN2-F and BIN2-R, BRF1-NdeI-F and BRF1-EcoRI-R, respectively. The PCR products BIN2 and BRF1 were ligated to the prey pGADT7 vector (AD vector) and the bait pGBKT7 vector (DBD vector), respectively. These prey and bait vectors were transformed into the yeast strain AH109, and yeast was grown on SD/-Trp/-Leu medium for 3 days. Transformants were selected on SD/Leu-/Trp- and SD/Leu-/Trp-/His-/1.5 mM 3-amino-1,2,4-triazole (3-AT, Sigma) medium. Empty vectors were used as the negative control.
Yeast two-hybrid analysis performed using primers BIN2-NdeI-F (5′-[…]-3′), BIN2-EcoRI-R (5′-[…]-3′), BRF1-NdeI-F (5′-[…]-3′), BRF1-EcoRI-R (5′-[…]-3′), (NdeI and EcoRI sites are underlined) (SEQ ID NOs: 48-51)

CC(C)[C@@H](C)[C@@H](O)[C@H](O)[C@@H](C)[C@H]1CC[C@H]2[C@@H]3COC(=O)[C@H]4C[C@H](O)[C@H](O)C[C@]4(C)[C@H]3CC[C@]12C [BL, 24-epibrassinolide]
time within which BRZ-stabilized BIN2-HA protein decreased by BL treatment (BIN2-HA protein; BRZ-grown BIN2-HA seedlings transferred to BL liquid medium, Western): 10 to 30 min | phenotypic response of dwarfed bin2-6D-HA line to BL treatment [1]: BL-insensitive | phenotypic response of BIN2-HA transgenic line to BL treatment ([2]; 1 μM BL-containing medium for 0, 2, 4 and 8 d): responds

CC(O)(c1ccccc1)C(Cc1ccc(Cl)cc1)n1cncn1 (stereo not drawn) [BRZ]
effect of exogenous application on BIN2 protein (BIN2-HA protein; exogenous application of BRZ): increased | effect of BRZ treatment on bin2 phenotype of BIN2-HA seedling ([2]; 2 μM BRZ medium for 2 weeks): enhanced

CC(C)C[C@@H](C=O)NC(=O)[C@H](CC(C)C)NC(=O)[C@H](CC(C)C)NC(=O)OCc1ccccc1 [MG132] (Cbz-Leu-Leu-Leu-aldehyde)
effect on BL-induced BIN2 disappearance (BIN2-HA protein; BIN2-HA seedlings, 1 μM BRZ 2 weeks, then 1 μM BL and/or 20 μM MG132, 30 min, IP/Western): effectively blocked

B1: BRF2: Arabidopsis F-box E3 ligase protein encoded by At5g56690, SEQ ID NO: 4 (protein, listed as Arabidopsis sp.)
chain: MAEISGLPDDLLVKILAFLPTKVAISTSVLSKQWRFLWMWLPKLKYDDYDDITDGFNSVSAFQTYRDFIAKNLPLHRAPIIESLSLGFRCGTLQPEDLKSWVEVAVSRSVRELSILAYYRNNYALSSSSLYTCKSLVTLKGFNIRVDVPPTVCLLPSLRTLELKRVRYLNEDSLRMLLSFCPVLEYLSIERHDNDNLRGLVVDVPSLRRLSLTSYTGCSSDDYVIVTPSLKYFKAFDYRSEISSYKIEKIPELEEADISIERNPEKLFVYFKSIKCLSLQVDFNSKEEPGYDSGIVFNHLEELTPYINDANWSKLLFRLLNDSPKLRVLEISNSKSFYKEKIGEYLPVSWSKNQGSVPKCFLNSLETFRVKWYYSEEQEDRDFLSLIFKHARCLKSTSILHR
identification as BIN2-interacting protein by IP combined LC/MALDI-TOF/MS (BIN2 [3]): BIN2-interacting protein

B2: BRF1: Arabidopsis F-box E3 ligase protein encoded by At5g62970, SEQ ID NO: 2 (protein, listed as Arabidopsis sp.)
chain: MDKISGFSDDELLVKILSFLPFKFAITTSVLSKQWKFLWMRVPKLEYDEDSMYSFEYSFRYFLPKAKEVDSETYSIVSESGHRMRSFIEKNLPLHSSPVIESLRLKFFTEVFQPEDIKLWVEIAVSRCAQELSVDFFPKEKHNALLPRNLYTCKSLVTLKLRNNILVDVPHVFSLPSLKILHLERVTYGDGESLQRLLSNCSVLEDLVVELDTGDNVRKLDVIIPSLLSLSFGMSRYCAYEGYRIDTPSLKYFKLTDLSKTFSGLIENMPKLEEANITARHNFKKLLELVTSVKRLSLNIENNDAEALTAIYGDDIVFNELEHLNFHIHNAYWSELLYWLLKASPKLQNLEFDEQCSRDGTMGTLAVFWNQPNSVPQCLLSTLQTFEWSGYPGSVQGKDLATYILRKSRQLKIATISIGYGLDPQQKLKMEMDVKFSFRASPTCKRVFY
identification as BIN2-interacting protein by IP combined LC/MALDI-TOF/MS (BIN2 [3]): BIN2-interacting protein | interaction with BIN2 in yeast two-hybrid assay (BIN2 [4]): specially interacted
